Measured values from patent US20260151399A1, “COMBINATIONS OF LSD1 INHIBITORS AND MENIN INHIBITORS FOR TREATING CANCER” (ORYZON GENOMICS, S.A., priority 2022, published 2026).

Columns and labels:
Assay in all cases: Single agent viability assay (96 hours, alamarBlue)
Format in all cases: cell-based
MV(4;11) = details: for EC50: Homo sapiens, MV4-11, mean, 96 hours incubation, N=2; for EC50 (range in words) / reduction of viability (compared to vehicle controls): MV(4;11), 96 hours
Experimental: (§1) Mycoplasma-free AML cell lines were maintained in RPMI 10% FBS medium at 37° C. in a humidified incubator with controlled 5% CO2 atmosphere. Cell freezing and thawing was performed following recommendation from ATCC. Genetic profiling of the cell lines used is available in Table 1.
(§2) Cells were seeded in 96-well plates at the optimal density to guarantee linear growth throughout the assay (8000 cells/well for MV(4;11), 4000 cells/well for MOLM-13 and OCI-AML3) in 50 μL of medium. Each experimental condition was tested in technical triplicates, including medium-only and vehicle-treated controls for background correction and normalization, respectively. After seeding, 50 μL of medium containing 9 serial dilutions of 2×-concentrated compound were added to the cells to obtain 100 μL of cells with 1×-concentrated compound at each dilution (DMSO %<0.5%). Cells were then incubated for 96 hours at 37° C. in a controlled 5% CO2 atmosphere, prior to evaluation of cell viability using alamarBlue™ cell viability reagent (ThermoFisher Scientific, Waltham, MA/USA). AlamarBlue™ is a cell viability indicator that uses the natural reducing power of living cells to convert resazurin to the fluorescent molecule resorufin. Briefly, alamarBlue™ stock solution was diluted 1:20 in the culture medium and after 3 hours incubation fluorescence was measured using a TECAN Infinity 2000 plate reader (Tecan Group Ltd., Mannedorf, CH; 540-570 nm excitation wavelength, 580-610 nm emission wavelength). For each condition, the average fluorescence was calculated from the 3 technical replicates; background correction was calculated from the fluorescence of medium-only controls. Data were analyzed using the GraphPad PRISM® version 9.0.1 (GraphPad Software, Inc., La Jolla, CA/USA) to calculate the best-fitting curves and the EC50 values.

MOLM-13 = details: for EC50: Homo sapiens, MOLM-13, mean, 96 hours incubation, N=2; for EC50 (range in words) / reduction of viability (compared to vehicle controls): MOLM-13, 96 hours
Experimental: as §1, §2

OCI-AML3 = details: for EC50: Homo sapiens, OCI-AML-3, mean, 96 hours incubation, N=2
Experimental: as §1, §2

SMILES	EC50 (MV(4;11))	EC50 (range in words) (MV(4;11))	reduction of viability (compared to vehicle controls) (MV(4;11))	EC50 (MOLM-13)	EC50 (range in words) (MOLM-13)	reduction of viability (compared to vehicle controls) (MOLM-13)	EC50 (OCI-AML3)	EC50 (range in words) (OCI-AML3; OCI-AML3, 96 hours)	reduction of viability (compared to vehicle controls) (OCI-AML3; OCI-AML3, 96 hours)
N#Cc1cc2cc(CN3CCC(Nc4ncnc5sc(CC(F)(F)F)cc45)CC3)ccc2[nH]1 [MI-136, 5-[[4-[[6-(2,2,2-trifluoroethyl)thieno[2,3-d]pyrimidin-4-yl]amino]piperidin-1-yl]methyl]-1H-indole-2-carbonitrile]	593 nM	less potent than SNDX-5613	100%	1840 nM	less potent than SNDX-5613	100%			
CC(C)(C)OC(=O)N[C@@H]1CCCN(Cc2ccnc(C(=O)Nc3ccc(-c4cc5c(N6CCOCC6)ncnc5[nH]4)cc3)c2)C1 [Menin-MLL inhibitor 20, tert-butyl N-[(3R)-1-[[2-[[4-(4-morpholin-4-yl-7H-pyrrolo[2,3-d]pyrimidin-6-yl)phenyl]carbamoyl]pyridin-4-yl]methyl]piperidin-3-yl]carbamate]	750 nM	less potent than SNDX-5613	100%	714 nM	less potent than SNDX-5613	100%			
CN1CCN(C(=O)[C@H](CCCN[C@@H]2C[C@H]2c2ccc(F)cc2)NC(=O)c2ccc(-n3ccnn3)cc2)CC1 [bomedemstat, N-[(2S)-5-{[(1R,2S)-2-(4-fluorophenyl)cyclopropyl]amino}-1-(4-methylpiperazin-1-yl)-1-oxopentan-2-yl]-4-(1H-1,2,3-triazol-1-yl)benzamide]	2.9 nM			3.55 nM			1.4 nM		
N[C@H]1CC[C@H](N[C@@H]2C[C@H]2c2ccccc2)CC1 [iadademstat, (trans)-N1-((1R,2S)-2-phenylcyclopropyl)cyclohexane-1,4-diamine]	0.16 nM			0.2 nM			0.13 nM		
COc1ccc(-c2c(-c3ccc(C#N)c(F)c3)nc(N3CCC(N)CC3)n(C)c2=O)cc1F [pulrodemstat, 4-[2-(4-aminopiperidin-1-yl)-5-(3-fluoro-4-methoxyphenyl)-1-methyl-6-oxo-1,6-dihydropyrimidin-4-yl]-2-fluorobenzonitrile]	1.1 nM			1.15 nM			0.99 nM		
CCN(C(=O)c1cc(F)ccc1Oc1cncnc1N1CC2(CCN(C[C@H]3CC[C@H](NS(=O)(=O)CC)CC3)CC2)C1)C(C)C [revumenib, 2-{[4-(7-{[trans-4-(ethanesulfonamido)cyclohexyl]methyl}-2,7-diazaspiro[3.5]nonan-2-yl)pyrimidin-5-yl]oxy}-N-ethyl-5-fluoro-N-(propan-2-yl)benzamide]	9.58 nM	nanomolar range	~100%	32 nM	nanomolar range	around 70%	53.2 nM	nanomolar range	around 50%
